Laboratory results: patent CN103739564A, “缬沙坦的多晶型及其制备方法” (Shanghai Institute of Materia Medica of CAS, priority 2012, dated 2013)

Experiment: Hygroscopicity analysis (DVS) of the valsartan crystal forms
Type: physicochemical
Details: new crystal forms; result in words only; DVS comparison (Figure 11) not in text

With `CCCCC(=O)N(Cc1ccc(-c2ccccc2-c2nnn[nH]2)cc1)[C@H](C(=O)O)C(C)C` [晶型E, (S)-N-(1-戊酰基)-N-[[2’-(1H-四唑-5-基)[1,1’-联苯]-4-基]甲基]-L-缬氨酸] the hygroscopicity was “吸湿性小”.
